Test results as given in US12209112B2, “Methods of preventing or treating diseases, conditions, or disorders associated with chemotherapy” (The Chinese University of Hong Kong, priority 2022, dated 2025).
Where two headings read alike, the source gives them in different places.

Tests used:
hESC-CMs [1] = test: Nuclear condensation by Hoechst 33342 stain (cardiomyocyte apoptosis); type: cell-based, human
Protocol: (§1) To evaluate mitochondrial morphology as a surrogate of cell and mitochondrial viability, hESC-CMs were incubated in B27+/RPMI−1640 media containing 50 nmol/L MitoTracker Deep Red (MTDR) (Thermo Fisher Scientific, USA), and 1 μg/ml Hoechst 33342 (Thermo Fisher Scientific, USA) for 20 minutes. Microscopic images were acquired using DMi8s Research Inverted Thunder Imager Live Cell System (Leica, Germany). For MTDR and Hoechst 33342 imaging, excitation wavelengths of […] and 480 nm, respectively, were used. Mitochondrial morphology was classified into three categories: i) elongated, ii) punctate, and iii) perinuclear. Nuclear morphology was classified as either condensed or normal.

hESC-CMs [2] = test: α-actinin immunostaining for sarcomeric integrity; type: cell-based, human
Protocol: hESC-CMs were permeabilized using 0.1% Triton X-100 (Thermo Fisher Scientific, USA). After permeabilizing for 15 minutes, cells were washed three times in PBS, and further permeabilization was blocked by incubating cells in PBS with 10% FBS (Hyclone, USA) for 1 hour at room temperature. Cells were incubated with the primary anti-actinin antibody (1:400) (Abcam, UK) and diluted in PBS with 10% FBS overnight. Cells were then washed three times with PBS and incubated with a goat anti-mouse IgG1 secondary antibody (1:1000 diluted in PBS with 10% FBS) (Thermo Fisher Scientific, USA) for 1 hour at room temperature. Finally, cells were washed twice with PBS and mounted using ibidi mounting medium with DAPI (Ibidi, Germany). Microscopic images were acquired using the DMi8s Research Inverted Thunder Imager Live Cell System (Leica, Germany) at 20×, 40×, and 100× magnification.

hESC-CMs [3] = test: Mitochondrial morphology analysis (MitoTracker Deep Red); type: cell-based, human
Protocol: as §1

hESC-CMs [4] = test: Real-time PCR of genes important for mitochondrial function; type: cell-based, human
Protocol: RNA was extracted using TRIzol™ Reagent (Thermo Fisher Scientific, USA) as per manufacturer's protocol. RNase-free reagents and consumables were used. RNA concentration and A260/280 ratio were determined using Synergy HTX Multi-Mode microplate reader (Agilent Technologies, USA).
cDNA was synthesized using the PrimeScript™ RT Master Mix (Takara, Japan) for real-time quantitative polymerase chain reaction (qPCR). Briefly, reverse transcription used 2 μl of 5× PrimeScript™ RT Master Mix, 0.5 μg of total RNA, and RNase-free dH2O added to total mixture volume of 10 μl. The reaction was carried out at 37° C. for 15 minutes and 85° C. for 5 seconds.
qPCR was performed using SYBR Green Master Mix (Promega, USA) as per manufacturer's protocol. A total reaction volume of 10 μl included 5 μl GoTaq® qPCR Master Mix 2×, 0.3 μl 10 nmol/L primers mix, and 30 ng cDNA template. The qPCR condition was: 1 cycle of 95° C. for 2 minutes, 40 cycles of 95° C. for 3 seconds, and 60° C. for 30 seconds. Expression level of genes was quantified using the 2^−ΔΔCT method on a ABI QuantStudio 12-Flex QPCR System W/96 Fast & 384 (Thermo Fisher Scientific, USA). Primer sequences used were summarized as follows for the respective gene sequences (Table 2).

C57BL/6J male mice = type: in vivo, mouse
Protocol: Recombinant human GDF15/MIC-1 protein (CHO-derived) was purchased from PeproTech Inc. (Cranbury, USA) and described in Example 1. […] For in vitro studies, solid lyophilized powder of these two drugs were solubilized at the recommended concentrations in sterile water, and separate aliquots were made and frozen until thawing prior to addition to cell cultures. For in vivo studies, all agents were dissolved in […] normal saline according to the required concentrations (doxorubicin, 5 mg/kg; GDF15, 0.5 mg/kg; dexrazoxane, […]), and the final volume of each intraperitoneal injection was 100 μl. The recommended dose ratio of dexrazoxane to doxorubicin was 10 to 1. In the following examples, 5 mg/kg of doxorubicin was used which correspond to 50 mg/kg of dexrazoxane. The FDA recommends that dexrazoxane be injected within 0.5 hour prior to doxorubicin infusion in individuals. This was followed in the same manner when applying to the test animals.
To induce cardiotoxicity in the mouse, four weekly intraperitoneal injections of doxorubicin at 5 mg/kg were administered. After one dose of doxorubicin at 5-6 mg/kg in a mouse, the level of exposure has been estimated to be similar to that of a human individual being given a standard dose of doxorubicin at approximately 60 mg/m^2. […]
The image processing and analysis software, ImageJ version 1.53K, was used for evaluation of histopathology from mouse experiments. For Masson's trichrome staining, the acquired images were converted from color to grayscale using ImageJ, the blue-stained collagen were segmented (separated) using thresholding, and the threshold areas in a representative microscopic field were quantified. […] Cells containing brown staining (TUNEL-positive cells) were counted in a representative microscopic field for each mouse in each group.

[5] = hESC-CMs, pretreatment in the presence of Dox
[6] = 300 ng/ml GDF15 pretreatment, hESC-CMs exposed to doxorubicin

Row | Molecule | hESC-CMs displaying nuclear condensation (hESC-CMs [1]; doxorubicin-treated, no pretreatment) [%] | sarcomere structure (α-actinin immunostaining) (hESC-CMs [2]; hESC-CMs exposed to Dox alone) | punctation or perinuclear changes of mitochondria (hESC-CMs [3]; doxorubicin-treated cells, no pretreatment, untreated control 5.4±4.2%) [%] | elongated mitochondria (proportion of hESC-CMs) (hESC-CMs [3]; doxorubicin-treated cells, no pretreatment, untreated control 94.6±5.8%) [%] | expression of genes important for mitochondrial function (hESC-CMs [4]; hESC-CMs, doxorubicin alone) | cardiac fibrosis (Masson's trichrome) (C57BL/6J male mice; mouse, in vivo) | extent of nuclear condensation compared with dexrazoxane (hESC-CMs [1]; [5]) | hESC-CMs displaying nuclear condensation (hESC-CMs [1]; pretreated with 300 ng/ml GDF15, then doxorubicin) [%] | sarcomere structure (α-actinin immunostaining) (hESC-CMs [2]; hESC-CMs, agent only, no doxorubicin) | sarcomeric damage (α-actinin immunostaining) (hESC-CMs [2]; hESC-CMs, pretreatment preceding doxorubicin) | elongated mitochondria (hESC-CMs [3]; [6]) [%] | perinuclear mitochondria (hESC-CMs [3]; [6]) [%] | mitochondrial integrity compared with dexrazoxane (hESC-CMs [3]; [5]) | expression of genes important for mitochondrial function (hESC-CMs [4]; hESC-CMs pretreated with GDF15 prior to doxorubicin exposure) | cardiac fibrosis (Masson's trichrome) (C57BL/6J male mice; mice, pretreatment before doxorubicin, versus doxorubicin only)
1 | COc1cccc2c1C(=O)c1c(O)c3c(c(O)c1C2=O)C[C@@](O)(C(=O)CO)C[C@@H]3OC1C[C@H](N)[C@H](O)[C@H](C)O1.Cl (stereo partly drawn) [Dox, (8S,10S)-10-[(3-Amino-2,3,6-trideoxy-L-lyxohexopyranosyl)oxy]-7,8,9,10-tetrahydro-6,8,11-trihydroxy-8-(hydroxyacetyl)-1-methoxynaphthacene-5,12-dione hydrochloride, reference compound] | > 40 | considerable disruption of sarcomere structure and nuclear condensation | 47.3±12.6 | 24.5±17.1 | suppressed | diffuse myocardial interstitial fibrosis as well as perivascular fibrosis |  |  |  |  |  |  |  |  | 
2 | GDF15: commercially available recombinant human GDF-15 protein (PeproTech 120-28C), CHO cell-derived, SEQ ID NO: 1 |  |  |  |  |  |  | performed similarly to dexrazoxane | 12.8±1.7 | well-organized, striated sarcomeres | sarcomeric damage was evidently attenuated | 62.5±11.0 | 13.2±14.7 | performed similarly to dexrazoxane | improved | visually and quantitatively reduced
